≈ marks a conversion by molar mass, not a printed value.
Key:
HL-60 = assay: Cytotoxicity against human HL-60 cells assessed as reduction in cell viability incubated for 96 hrs by MTT assay; format: cell-based; settings: HL-60, 96 h
MCF-10A = assay: Cytotoxicity against human MCF-10A cells assessed as reduction in cell viability incubated for 96 hrs by MTT assay; format: cell-based
PC-3 = assay: Cytotoxicity against human PC3 cells assessed as reduction in cell viability incubated for 96 hrs by MTT assay; format: cell-based; settings: PC-3, 96 h
Candida albicans [1] = assay: Antifungal activity against fluconazole-resistant Candida albicans 904 assessed as inhibition of microbial growth after 24 hrs by broth microdilution method; format: functional
Candida albicans [2] = assay: Potency index, ratio of fluconazole MIC to test compound MIC for Candida albicans CPCC400616 measured after 24 hrs by broth microdilution assay; format: functional
Cryptococcus neoformans = assay: Antifungal activity against Cryptococcus neoformans CMGCC2.3161 measured after 72 hrs by broth microdilution assay; format: functional
Candida albicans [3] = assay: Antifungal activity against Candida albicans ATCC SC5314 measured after 24 hrs by broth microdilution assay; format: functional
Candida albicans [4] = assay: Antifungal activity against fluconazole-resistant Candida albicans 17# assessed as inhibition of microbial growth after 24 hrs by broth microdilution method; format: functional
Candida albicans [5] = assay: Antifungal activity against fluconazole-resistant Candida albicans 901 assessed as inhibition of microbial growth after 24 hrs by broth microdilution method; format: functional
Candida albicans [6] = assay: Antifungal activity against Candida albicans CPCC400616 measured after 24 hrs by broth microdilution assay; format: functional
[Candida] zeylanoides = Antifungal activity against Candida zeylanoides CMGCC2.3739 measured after 24 hrs by broth microdilution assay; format: functional; settings: Dujonia zeylanoides
Aspergillus fumigatus = assay: Antifungal activity against Aspergillus fumigatus CMGCC3.7795 measured after 72 hrs by broth microdilution assay; format: functional
Nakaseomyces glabratus = assay: Antifungal activity against Candida glabrata measured after 24 hrs by broth microdilution assay; format: functional
Candida parapsilosis = assay: Antifungal activity against Candida parapsilosis ATCC 22019 measured after 24 hrs by broth microdilution assay; format: functional; settings: Lodderomyces parapsilosis
Candida albicans [7] = assay: Antifungal activity against fluconazole-resistant Candida albicans CaR assessed as inhibition of microbial growth after 24 hrs by broth microdilution method; format: functional
Candida albicans [8] = assay: Antifungal activity against fluconazole-resistant Candida albicans 632 assessed as inhibition of microbial growth after 24 hrs by broth microdilution method; format: functional
Pichia kudriavzevii = assay: Antifungal activity against Candida krusei AS2.1045 measured after 24 hrs by broth microdilution assay; format: functional
MDA-MB-231 = assay: Cytotoxicity against human MDA-MB-231 cells assessed as reduction in cell viability incubated for 96 hrs by MTT assay; settings: MDA-MB-231, 96 h

Row | SMILES | IC50 (HL-60) | IC50 (MCF-10A) | IC50 (PC-3) | MIC (Candida albicans [1]) | Ratio (Candida albicans [2]) | MIC (Cryptococcus neoformans) | MIC (Candida albicans [3]) | MIC (Candida albicans [4]) | MIC (Candida albicans [5]) | MIC (Candida albicans [6]) | MIC ([Candida] zeylanoides) | MIC (Aspergillus fumigatus) | MIC (Nakaseomyces glabratus) | MIC (Candida parapsilosis) | MIC (Candida albicans [7]) | MIC (Candida albicans [8]) | MIC (Pichia kudriavzevii) | IC50 (MDA-MB-231) | IC50 (PC-3; read-out: IC50)
1 | COc1cccc2c1C(=O)c1c(O)c3c(c(O)c1C2=O)C[C@@](O)(C(=O)CO)C[C@@H]3O[C@H]1C[C@H](N)[C@H](O)[C@H](C)O1 [DOXORUBICIN] | < 125 nM | 2640 nM | 640 nM | – | – | – | – | – | – | – | – | – | – | – | – | – | – | – | –
2 | Clc1ccc(C(Cn2ccnc2)[Se]c2ccccc2)c(Cl)c1 (stereo unspecified) | – | – | – | 2 µg/mL | 8 | 0.13 µg/mL (≈ 0.328 µM) | 0.13 µg/mL (≈ 0.328 µM) | 1 µg/mL | 2 µg/mL | 0.25 µg/mL (≈ 0.631 µM) | 0.25 µg/mL (≈ 0.631 µM) | 8 µg/mL (≈ 20.2 µM) | 1 µg/mL (≈ 2.52 µM) | 0.25 µg/mL (≈ 0.631 µM) | 1 µg/mL | 1 µg/mL | 0.13 µg/mL (≈ 0.328 µM) | – | –
3 | Fc1cccc([Se]C(Cn2ccnc2)c2ccc(F)cc2F)c1 (stereo unspecified) | – | – | – | 2 µg/mL | 8 | 0.5 µg/mL (≈ 1.31 µM) | 0.03 µg/mL (≈ 0.0787 µM) | 4 µg/mL | 2 µg/mL | 0.5 µg/mL (≈ 1.31 µM) | 0.5 µg/mL (≈ 1.31 µM) | 8 µg/mL (≈ 21 µM) | 1 µg/mL (≈ 2.62 µM) | 0.25 µg/mL (≈ 0.656 µM) | 4 µg/mL | 1 µg/mL | 0.13 µg/mL (≈ 0.341 µM) | – | –
4 | COc1ccccc1[Se]C(Cn1ccnc1)c1ccc(Cl)cc1Cl (stereo unspecified) | – | – | – | 8 µg/mL | 8 | 0.5 µg/mL (≈ 1.17 µM) | 0.03 µg/mL (≈ 0.0704 µM) | 2 µg/mL | 1 µg/mL | 0.06 µg/mL (≈ 0.141 µM) | 0.25 µg/mL (≈ 0.587 µM) | 8 µg/mL (≈ 18.8 µM) | 0.5 µg/mL (≈ 1.17 µM) | 0.13 µg/mL (≈ 0.305 µM) | 2 µg/mL | 2 µg/mL | 0.13 µg/mL (≈ 0.305 µM) | – | –
5 | Cc1ccc([Se]C(Cn2ccnc2)c2ccc(F)cc2F)cc1 (stereo unspecified) | – | – | – | 4 µg/mL | 8 | 0.13 µg/mL (≈ 0.345 µM) | 0.03 µg/mL (≈ 0.0795 µM) | 16 µg/mL | 8 µg/mL | 0.5 µg/mL (≈ 1.33 µM) | 0.5 µg/mL (≈ 1.33 µM) | 8 µg/mL (≈ 21.2 µM) | 0.5 µg/mL (≈ 1.33 µM) | 0.25 µg/mL (≈ 0.663 µM) | 2 µg/mL | 1 µg/mL | 0.13 µg/mL (≈ 0.345 µM) | – | –
6 | Cc1ccc([Se]C(Cn2ccnc2)c2ccc(Cl)cc2Cl)cc1 (stereo unspecified) | – | – | – | 16 µg/mL | 8 | 0.13 µg/mL (≈ 0.317 µM) | 0.03 µg/mL (≈ 0.0731 µM) | 4 µg/mL | 8 µg/mL | 0.25 µg/mL (≈ 0.609 µM) | 0.25 µg/mL (≈ 0.609 µM) | 8 µg/mL (≈ 19.5 µM) | 0.25 µg/mL (≈ 0.609 µM) | 0.5 µg/mL (≈ 1.22 µM) | 32 µg/mL | 4 µg/mL | 0.5 µg/mL (≈ 1.22 µM) | – | –
7 | Cc1ccc(C)c([Se]C(Cn2ccnc2)c2ccc(F)cc2F)c1 (stereo unspecified) | – | – | – | 8 µg/mL | 8 | 0.25 µg/mL (≈ 0.639 µM) | 0.06 µg/mL (≈ 0.153 µM) | 4 µg/mL | 4 µg/mL | 0.25 µg/mL (≈ 0.639 µM) | 0.5 µg/mL (≈ 1.28 µM) | 8 µg/mL (≈ 20.4 µM) | 0.5 µg/mL (≈ 1.28 µM) | 0.13 µg/mL (≈ 0.332 µM) | 8 µg/mL | 2 µg/mL | 0.13 µg/mL (≈ 0.332 µM) | – | –
8 | Cc1cccc([Se]C(Cn2ccnc2)c2ccc(Cl)cc2Cl)c1 (stereo unspecified) | – | – | – | 1 µg/mL | 8 | 0.25 µg/mL (≈ 0.609 µM) | 0.03 µg/mL (≈ 0.0731 µM) | 1 µg/mL | 1 µg/mL | 0.25 µg/mL (≈ 0.609 µM) | 0.25 µg/mL (≈ 0.609 µM) | 4 µg/mL (≈ 9.75 µM) | 1 µg/mL (≈ 2.44 µM) | 0.25 µg/mL (≈ 0.609 µM) | 1 µg/mL | 1 µg/mL | 0.06 µg/mL (≈ 0.146 µM) | – | –
9 | COc1ccc([Se]C(Cn2ccnc2)c2ccc(Cl)cc2Cl)cc1 (stereo unspecified) | – | – | – | 8 µg/mL | 8 | 0.25 µg/mL (≈ 0.587 µM) | 0.03 µg/mL (≈ 0.0704 µM) | 2 µg/mL | 8 µg/mL | 0.13 µg/mL (≈ 0.305 µM) | 0.5 µg/mL (≈ 1.17 µM) | 16 µg/mL (≈ 37.5 µM) | 0.25 µg/mL (≈ 0.587 µM) | 0.25 µg/mL (≈ 0.587 µM) | 8 µg/mL | 2 µg/mL | 0.02 µg/mL (≈ 0.0469 µM) | – | –
10 | COc1ccc([Se]C(Cn2ccnc2)c2ccc(F)cc2F)cc1 (stereo unspecified) | – | – | – | 8 µg/mL | 8 | 0.5 µg/mL (≈ 1.27 µM) | 0.03 µg/mL (≈ 0.0763 µM) | 16 µg/mL | 2 µg/mL | 1 µg/mL (≈ 2.54 µM) | 0.25 µg/mL (≈ 0.636 µM) | 8 µg/mL (≈ 20.3 µM) | 0.5 µg/mL (≈ 1.27 µM) | 0.25 µg/mL (≈ 0.636 µM) | 2 µg/mL | 16 µg/mL | 0.5 µg/mL (≈ 1.27 µM) | – | –
11 | Fc1ccc(C(Cn2ccnc2)[Se]c2ccccc2)c(F)c1 (stereo unspecified) | – | – | – | 1 µg/mL | 8 | 0.5 µg/mL (≈ 1.38 µM) | 0.02 µg/mL (≈ 0.0551 µM) | 4 µg/mL | 2 µg/mL | 0.5 µg/mL (≈ 1.38 µM) | 0.25 µg/mL (≈ 0.688 µM) | 2 µg/mL (≈ 5.51 µM) | 1 µg/mL (≈ 2.75 µM) | 0.06 µg/mL (≈ 0.165 µM) | 1 µg/mL | 2 µg/mL | 0.25 µg/mL (≈ 0.688 µM) | – | –
12 | CCc1ccc([Se]C(Cn2ccnc2)c2ccc(Cl)cc2Cl)cc1 (stereo unspecified) | – | – | – | 15 µg/mL | 8 | 0.5 µg/mL (≈ 1.18 µM) | 0.03 µg/mL (≈ 0.0707 µM) | 8 µg/mL | 4 µg/mL | 0.5 µg/mL (≈ 1.18 µM) | 0.5 µg/mL (≈ 1.18 µM) | 4 µg/mL (≈ 9.43 µM) | 0.13 µg/mL (≈ 0.306 µM) | 1 µg/mL (≈ 2.36 µM) | 8 µg/mL | 4 µg/mL | 0.06 µg/mL (≈ 0.141 µM) | – | –
13 | COc1cccc([Se]C(Cn2ccnc2)c2ccc(Cl)cc2Cl)c1 (stereo unspecified) | – | – | – | 4 µg/mL | 8 | 0.25 µg/mL (≈ 0.587 µM) | 0.03 µg/mL (≈ 0.0704 µM) | 2 µg/mL | 16 µg/mL | 0.25 µg/mL (≈ 0.587 µM) | 0.5 µg/mL (≈ 1.17 µM) | 8 µg/mL (≈ 18.8 µM) | 0.5 µg/mL (≈ 1.17 µM) | 0.5 µg/mL (≈ 1.17 µM) | 8 µg/mL | 16 µg/mL | 0.06 µg/mL (≈ 0.141 µM) | – | –
14 | COc1cccc([Se]C(Cn2ccnc2)c2ccc(F)cc2F)c1 (stereo unspecified) | – | – | – | 8 µg/mL | 8 | 0.5 µg/mL (≈ 1.27 µM) | 0.13 µg/mL (≈ 0.331 µM) | 4 µg/mL | 4 µg/mL | 0.5 µg/mL (≈ 1.27 µM) | 1 µg/mL (≈ 2.54 µM) | 4 µg/mL (≈ 10.2 µM) | 0.5 µg/mL (≈ 1.27 µM) | 0.25 µg/mL (≈ 0.636 µM) | 2 µg/mL | 1 µg/mL | 0.13 µg/mL (≈ 0.331 µM) | – | –
15 | CC(=O)O[C@H]1C(=O)[C@@]2(C)[C@H]([C@H](OC(=O)c3ccccc3)[C@]3(O)C[C@H](OC(=O)[C@H](O)[C@@H](NC(=O)c4ccccc4)c4ccccc4)C(C)=C1C3(C)C)[C@]1(OC(C)=O)CO[C@@H]1C[C@@H]2O [PACLITAXEL] | – | – | – | – | – | – | – | – | – | – | – | – | – | – | – | – | – | < 1 nM | < 25 nM
16 | CCc1ccc([Se]C(Cn2ccnc2)c2ccc(F)cc2F)cc1 (stereo unspecified) | – | – | – | 8 µg/mL | 8 | 0.03 µg/mL (≈ 0.0767 µM) | 0.13 µg/mL (≈ 0.332 µM) | 4 µg/mL | 2 µg/mL | 0.13 µg/mL (≈ 0.332 µM) | 0.5 µg/mL (≈ 1.28 µM) | 8 µg/mL (≈ 20.4 µM) | 0.5 µg/mL (≈ 1.28 µM) | 0.13 µg/mL (≈ 0.332 µM) | 1 µg/mL | 1 µg/mL | 0.13 µg/mL (≈ 0.332 µM) | – | –

— ChEMBL document CHEMBL4813985, “Lead optimization generates selenium-containing miconazole CYP51 inhibitors with improved pharmacological profile for the treatment of fungal infections” (Eur J Med Chem, 2021)
